IC50 data for 20 compounds are collected here from US10689378B2, “Triazolopyridine compounds and uses thereof” (Novartis AG, priority 2016, dated 2020).

Experiment [1] concerns the target T1, EED (1-441)-His protein (Homo sapiens, UniProt O75530).
T1 construct: 30 nM EED (1-441)-His protein
The experiment in a line: EED-H3K27Me3 peptide competition binding assay by AlphaScreen. The note with it: read-out: (a) IC50, EED Alphascreen binding Qualified. The method, boiled down:
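Serially diluted compound (12 points, 3-fold) incubated 20 min with 30 nM EED(1-441)-His and 15 nM biotin-H3K27Me3(19-33) peptide in 25 mM HEPES pH 8, 0.02% Tween-20, 0.5% BSA. Ni-chelate acceptor/streptavidin donor beads (10 μg/mL each) added, 1 h rt dark; 615 nm emission normalized to controls, dose-response fit for IC50.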
For orientation: Bead proximity is the source of the signal in Alpha formats.

For experiment [2], the target named is wild type PRC2 (wtPRC2) complex (Homo sapiens, UniProt O75530). The experiment in a line: EED LC-MS assay (SAH production by PRC2). It counts as biochemical. The note with it: read-out: (b) IC50, EED LC-MS Qualified. The method, boiled down: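 LC-MS/MS readout of SAH (d4-SAH standard) after TFA quench gives PRC2 activity, normalized to controls and fitted to dose-response for IC50. Reaction: 12 nM EZH2/SUZ12/EED/Rbap48/AEBP complex, 1 μM SAM, 1.5 μM H3[21-44] peptide, 120 min rt, 20 min compound preincubation.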
wild type PRC2 (wtPRC2) complex, sequence (O75530 whole entry): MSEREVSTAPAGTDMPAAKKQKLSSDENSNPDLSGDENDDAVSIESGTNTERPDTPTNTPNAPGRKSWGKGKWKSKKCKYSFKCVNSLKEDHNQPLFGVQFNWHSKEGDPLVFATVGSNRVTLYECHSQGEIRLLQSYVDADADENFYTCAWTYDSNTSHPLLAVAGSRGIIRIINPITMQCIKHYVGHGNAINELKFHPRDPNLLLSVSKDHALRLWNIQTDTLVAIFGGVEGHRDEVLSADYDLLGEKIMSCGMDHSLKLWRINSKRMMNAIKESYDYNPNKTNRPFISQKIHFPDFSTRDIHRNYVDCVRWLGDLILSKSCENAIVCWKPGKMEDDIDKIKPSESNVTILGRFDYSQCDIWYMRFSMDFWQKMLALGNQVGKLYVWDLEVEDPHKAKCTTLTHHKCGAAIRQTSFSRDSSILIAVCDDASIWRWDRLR
wild type PRC2 (wtPRC2) complex, sequence (Q15910 whole entry partner): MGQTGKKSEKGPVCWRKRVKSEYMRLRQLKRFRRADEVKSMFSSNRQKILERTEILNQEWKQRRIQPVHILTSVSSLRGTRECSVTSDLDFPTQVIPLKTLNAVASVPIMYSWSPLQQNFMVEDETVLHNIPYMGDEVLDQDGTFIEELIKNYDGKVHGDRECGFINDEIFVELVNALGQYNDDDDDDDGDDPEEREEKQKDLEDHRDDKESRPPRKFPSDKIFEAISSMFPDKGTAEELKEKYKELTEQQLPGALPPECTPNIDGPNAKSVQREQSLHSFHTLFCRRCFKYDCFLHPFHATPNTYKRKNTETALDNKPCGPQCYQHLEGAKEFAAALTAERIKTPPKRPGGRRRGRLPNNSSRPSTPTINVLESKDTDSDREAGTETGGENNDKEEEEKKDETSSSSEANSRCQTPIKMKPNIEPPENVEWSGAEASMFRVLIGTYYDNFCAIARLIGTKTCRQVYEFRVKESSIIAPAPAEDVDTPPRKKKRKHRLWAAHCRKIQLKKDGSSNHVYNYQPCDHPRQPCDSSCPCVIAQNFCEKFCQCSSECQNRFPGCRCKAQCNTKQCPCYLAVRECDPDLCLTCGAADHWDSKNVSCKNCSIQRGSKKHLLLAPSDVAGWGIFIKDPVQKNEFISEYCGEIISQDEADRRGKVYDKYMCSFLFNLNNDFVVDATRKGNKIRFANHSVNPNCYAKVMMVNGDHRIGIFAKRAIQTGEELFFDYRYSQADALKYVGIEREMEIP
wild type PRC2 (wtPRC2) complex, sequence (Q15022 whole entry partner): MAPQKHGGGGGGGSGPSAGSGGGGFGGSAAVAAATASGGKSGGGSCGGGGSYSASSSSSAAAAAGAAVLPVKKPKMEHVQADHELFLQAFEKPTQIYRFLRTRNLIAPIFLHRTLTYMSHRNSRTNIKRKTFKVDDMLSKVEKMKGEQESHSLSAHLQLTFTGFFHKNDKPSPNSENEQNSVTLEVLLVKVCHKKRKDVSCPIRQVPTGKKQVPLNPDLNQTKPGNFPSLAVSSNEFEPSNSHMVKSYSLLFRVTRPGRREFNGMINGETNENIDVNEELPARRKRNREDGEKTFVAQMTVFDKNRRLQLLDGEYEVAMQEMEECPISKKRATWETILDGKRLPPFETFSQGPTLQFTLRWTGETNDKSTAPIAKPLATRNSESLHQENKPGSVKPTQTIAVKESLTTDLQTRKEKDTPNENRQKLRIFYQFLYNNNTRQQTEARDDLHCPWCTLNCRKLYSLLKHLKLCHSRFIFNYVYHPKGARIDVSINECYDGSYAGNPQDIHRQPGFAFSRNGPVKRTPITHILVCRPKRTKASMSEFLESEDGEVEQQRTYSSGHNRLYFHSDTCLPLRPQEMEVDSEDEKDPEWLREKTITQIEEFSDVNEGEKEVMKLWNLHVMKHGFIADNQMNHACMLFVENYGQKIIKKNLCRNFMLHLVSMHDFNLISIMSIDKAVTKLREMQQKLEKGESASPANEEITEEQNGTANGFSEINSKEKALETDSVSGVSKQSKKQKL
wild type PRC2 (wtPRC2) complex, sequence (Q09028 whole entry partner): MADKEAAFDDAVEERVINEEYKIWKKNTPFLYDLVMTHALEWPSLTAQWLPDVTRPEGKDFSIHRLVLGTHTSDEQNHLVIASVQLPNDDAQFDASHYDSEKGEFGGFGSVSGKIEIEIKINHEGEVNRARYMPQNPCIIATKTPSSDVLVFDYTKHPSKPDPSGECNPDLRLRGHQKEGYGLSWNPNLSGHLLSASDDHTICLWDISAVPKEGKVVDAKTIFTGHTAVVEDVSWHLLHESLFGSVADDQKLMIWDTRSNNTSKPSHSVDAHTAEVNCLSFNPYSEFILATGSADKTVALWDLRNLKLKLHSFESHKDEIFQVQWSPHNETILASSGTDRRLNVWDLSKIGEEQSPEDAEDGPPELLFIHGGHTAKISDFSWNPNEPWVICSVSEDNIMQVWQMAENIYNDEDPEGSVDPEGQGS
wild type PRC2 (wtPRC2) complex, sequence (Q6ZN18 whole entry partner): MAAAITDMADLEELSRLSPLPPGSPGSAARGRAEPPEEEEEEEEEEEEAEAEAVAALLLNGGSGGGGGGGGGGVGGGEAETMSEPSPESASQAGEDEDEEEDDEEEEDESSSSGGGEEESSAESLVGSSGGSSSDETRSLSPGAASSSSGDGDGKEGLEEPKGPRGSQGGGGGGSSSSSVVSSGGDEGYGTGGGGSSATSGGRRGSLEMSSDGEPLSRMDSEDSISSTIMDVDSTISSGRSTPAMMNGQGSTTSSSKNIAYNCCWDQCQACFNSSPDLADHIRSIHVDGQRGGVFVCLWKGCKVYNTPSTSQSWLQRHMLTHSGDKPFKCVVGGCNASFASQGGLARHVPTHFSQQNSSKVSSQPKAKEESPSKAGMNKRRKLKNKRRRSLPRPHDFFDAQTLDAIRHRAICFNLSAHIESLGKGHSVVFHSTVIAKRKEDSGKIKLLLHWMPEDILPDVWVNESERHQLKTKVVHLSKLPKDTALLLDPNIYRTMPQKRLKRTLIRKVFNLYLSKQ

Experiment [3] concerns H3K27 methylation in G401 cell. The experiment in a line: ELISA (H3K27 methylation) assay in G401 cells. The format is cell-based, human. The note with it: Homo sapiens, G-401, read-out: (c) IC50, ELISA Qualified. In short, it runs like this: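 IC50 from dose-response fit of percent inhibition relative to DMSO, using H3K27me3/me2 ELISA signal (ECL) normalized to histone H3. Histones HCl-extracted after 48 h compound exposure of G401 cells at up to 20 μM, 8- or 12-point 3-fold series.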
On the technique in general: In an ELISA, binding on a coated surface is turned into a signal by an enzyme label.

T1 sequence (O75530 whole entry): as the sequence (O75530 whole entry) above

Take `COc1ccccc1CNc1ccc(-c2ccnc(N3CCN(C)CC3)c2)c2nncn12` [Example 67, N-(2-methoxybenzyl)-8-(2-(4-methylpiperazin-1-yl)pyridin-4-yl)-[1,2,4] triazolo[4,3-a]pyridin-5-amine]: the IC50 (as a rule, the concentration that inhibits the measured activity by half) in experiment [1] was 54.6 nM; in experiment [2] it was 197 nM; in experiment [3] it was 45 nM.
In the case of `COc1ccccc1CNc1ccc(-c2ccc(S(=O)(=O)N3CCCC3)cc2)c2nncn12` [Example 68, N-(2-methoxybenzyl)-8-(4-(pyrrolidin-1-ylsulfonyl)phenyl)-[1,2,4]triazolo[4,3-a] pyridin-5-amine], the IC50 worked out at 16.7 nM in experiment [1], 311 nM in experiment [2] and 49.7 nM in experiment [3].
The like results for `CCN1CCN(c2ccc(-c3ccc(NCc4ccccc4OC)n4cnnc34)cn2)CC1` [Example 69, 8-(6-(4-ethylpiperazin-1-yl)pyridin-3-yl)-N-(2-methoxybenzyl)-[1,2,4]triazolo[4,3-a] pyridin-5-amine] were, in that order, 28.2 nM, 304 nM and 73.7 nM.
As for `COc1ccccc1CNc1ccc(-c2ccc(CN(C)C)cc2F)c2nncn12` [Example 70, 8-(4-((dimethylamino)methyl)-2-fluorophenyl)-N-(2-methoxybenzyl)-[1,2,4] triazolo[4,3-a]pyridin-5-amine], the concentration for half-maximal inhibition (IC50) worked out at 37.6 nM in experiment [1], 188 nM in experiment [2] and 334 nM in experiment [3].
The like results for `COc1ccccc1CNc1ccc(-c2ccc(C(=O)N(C)C)cc2F)c2nncn12` [Example 71, 3-fluoro-4-(5-((2-methoxybenzyl)amino)-[1,2,4]triazolo[4,3-a]pyridin-8-yl)-N,N-dimethylbenzamide] were, in that order, 34.9 nM, 275 nM and 43.4 nM.
The like results for `COc1ccccc1CNc1ccc(-c2ccc(C(N)=O)cc2)c2nncn12` [Example 72, 4-(5-((2-methoxybenzyl)amino)-[1,2,4]triazolo[4,3-a]pyridin-8-yl)benzamide] were, in that order, 12.9 nM, 1010 nM and 43.3 nM.
On the same counts, the results for `COc1ccccc1CNc1ccc(-c2ccc(S(N)(=O)=O)cc2)c2nncn12` [Example 73, 4-(5-((2-methoxybenzyl)amino)-[1,2,4]triazolo[4,3-a]pyridin-8-yl)benzene sulfonamide] are 45.2 nM, 236 nM and 397 nM.
Take `COc1ccccc1CNc1ccc(-c2ccc(Cn3ccnc3)cc2)c2nncn12` [Example 76, 8-(4-((1H-imidazol-1-yl)methyl)phenyl)-N-(2-methoxybenzyl)-[1,2,4] triazolo[4,3-a]pyridin-5-amine]: the figures for the half-inhibitory concentration (IC50) in experiment [1], in experiment [2] and in experiment [3] were 41.9 nM, 420 nM and 133 nM, respectively.
The like results for `COc1ccccc1CNc1ccc(-c2ccc(N3CCN(C(C)C)CC3)cc2)c2nncn12` [Example 77, 8-(4-(4-isopropylpiperazin-1-yl)phenyl)-N-(2-methoxybenzyl)-[1,2,4]triazolo[4,3-a] pyridin-5-amine] were, in that order, 14.6 nM, 106 nM and 21.7 nM.
As for `COc1cccc(F)c1CNc1ccc(-c2ccc(S(C)(=O)=O)cc2)c2nncn12` [Example 78, N-(2-fluoro-6-methoxybenzyl)-8-(4-(methylsulfonyl)phenyl)-[1,2,4]triazolo[4,3-a]pyridin-5-amine], the IC50 in experiment [1] came to 18 nM; in experiment [2] it was 75.1 nM; in experiment [3], 26.1 nM.
On the same counts, the results for `COc1ccccc1CNc1ccc(-c2ccc(NS(C)(=O)=O)cc2)c2nncn12` [Example 82, N-(4-(5-((2-methoxybenzyl)amino)-[1,2,4]triazolo[4,3-a]pyridin-8-yl)phenyl) methanesulfonamide] are 80.3 nM, 509 nM and 330 nM.
The like results for `COc1cc(F)ccc1CNc1ccc(-c2ccc(S(C)(=O)=O)cc2)c2nncn12` [Example 83, N-(4-fluoro-2-methoxybenzyl)-8-(4-(methylsulfonyl)phenyl)-[1,2,4]triazolo[4,3-a]pyridin-5-amine] were, in that order, 55.7 nM, 491 nM and 815 nM.
On the same counts, the results for `COc1ccccc1CNc1ccc(-c2ccc(N3CCN(C(C)C)CC3)nc2)c2nncn12` [Example 87, 8-(6-(4-isopropylpiperazin-1-yl)pyridin-3-yl)-N-(2-methoxybenzyl)-[1,2,4] triazolo[4,3-a]pyridin-5-amine] are 39.2 nM, 239 nM and 90.1 nM.
With `COc1ccccc1CNc1ccc(-c2ccnc(C)c2)c2nncn12` [Example 91, N-(2-methoxybenzyl)-8-(2-methylpyridin-4-yl)-[1,2,4] triazolo[4,3-a]pyridin-5-amine], the figures for the half-maximal inhibitory concentration (IC50) in experiment [1], in experiment [2] and in experiment [3] were 37.5 nM, 278 nM and 60.8 nM, respectively.
On the same counts, the results for `COc1ccccc1CNc1ccc(-c2cccc(CCN(C)C)c2)c2nncn12` [Example 94, 8-(3-(2-(dimethylamino)ethyl)phenyl)-N-(2-methoxybenzyl)-[1,2,4]triazolo[4,3-a] pyridin-5-amine] are 26.5 nM, 62.3 nM and 41.1 nM.
On the same counts, the results for `COc1cccc(F)c1CNc1ccc(-c2ccc(S(N)(=O)=O)cc2)c2nncn12` [Example 100, 4-(5-((2-fluoro-6-methoxybenzyl)amino)-[1,2,4]triazolo[4,3-a]pyridin-8-yl)benzenesulfonamide] are 12.4 nM, 139 nM and 40 nM.
The like results for `COc1ccccc1CNc1ccc(-c2ccc(S(=O)(=O)NCCO)cc2)c2nncn12` [Example 101, N-(2-hydroxyethyl)-4-(5-((2-methoxybenzyl)amino)-[1,2,4]triazolo[4,3-a]pyridin-8-yl)benzenesulfonamide] were, in that order, 50.1 nM, 2580 nM and 102 nM.
On to `COc1ccccc1CNc1ccc(-c2ccc([S+](C)[O-])cc2)c2nncn12` (stereo not drawn) [Example 102, N-(2-methoxybenzyl)-8-(4-(methylsulfinyl)phenyl)-[1,2,4]triazolo[4,3-a]pyridin-5-amine], for which the IC50 was 61.9 nM in experiment [1], 1460 nM in experiment [2] and 68.9 nM in experiment [3].
Regarding `COc1cccc(F)c1CNc1ccc(-c2ccc(NS(C)(=O)=O)cc2)c2nncn12` [Example 105, N-(4-(5-((2-fluoro-6-methoxybenzyl)amino)-[1,2,4]triazolo[4,3-a]pyridin-8-yl)phenyl)methane sulfonamide], the values for the half-maximal inhibitory concentration (IC50) in experiment [1], in experiment [2] and in experiment [3] were 21.5 nM, 281 nM and 43.3 nM, respectively.
The like results for `COc1cccc(F)c1CNc1ccc(-c2ccc(NS(C)(=O)=O)c(F)c2)c2nncn12` [Example 106, N-(2-fluoro-4-(5-((2-fluoro-6-methoxybenzyl)amino)-[1,2,4]triazolo[4,3-a]pyridin-8-yl)phenyl) methanesulfonamide] were, in that order, 46.8 nM, 454 nM and 53 nM.
